In patent US8450308B2 (Vitae Pharmaceuticals, Inc., priority 2008, dated 2013):

Molecular target: T1, truncated human beta-secretase (residues 1-458, His6-tagged at the C-terminus) (Homo sapiens, UniProt P56817)
T1 construct: truncated human beta-secretase (residues 1-458, His6-tagged at the C-terminus); His6 (C); made in house; host or cells: insect cells D. melanogaster S2 (baculovirus expression system (so in the source))
Assay: BACE fluorescence quench assay
Format: biochemical
Settings: not given
Method: The assay was performed at room temperature in 96-well white opaque Optiplates aque Optiplates (PerkinElmer, Waltham, Mass.) in a total volume of 200 μl of the incubation mixture containing 50 mM sodium acetate buffer, pH 4.5, 0.4 μM FRET substrate, 2.4 nM enzyme, 5% DMSO, and 0.05% Brij-35. The tested compounds were serially diluted in DMSO and pre-incubated with the substrate. The reaction was started by addition of enzyme, and the progress of the reaction was followed by measuring fluorescence with an excitation wavelength of 480 nm and an emission wavelength of 520 nm. Ten measurements were taken every 5-10 min, and the intensity of fluorescence was regressed against time in order to derive velocities of reaction in all 96 wells. […] IC50 values were calculated by fitting percent inhibition vs. inhibitor concentration into a four-parametric logistic model using XLFit software (IDBS, Guildford, UK).

T1 sequence (P56817 22-458): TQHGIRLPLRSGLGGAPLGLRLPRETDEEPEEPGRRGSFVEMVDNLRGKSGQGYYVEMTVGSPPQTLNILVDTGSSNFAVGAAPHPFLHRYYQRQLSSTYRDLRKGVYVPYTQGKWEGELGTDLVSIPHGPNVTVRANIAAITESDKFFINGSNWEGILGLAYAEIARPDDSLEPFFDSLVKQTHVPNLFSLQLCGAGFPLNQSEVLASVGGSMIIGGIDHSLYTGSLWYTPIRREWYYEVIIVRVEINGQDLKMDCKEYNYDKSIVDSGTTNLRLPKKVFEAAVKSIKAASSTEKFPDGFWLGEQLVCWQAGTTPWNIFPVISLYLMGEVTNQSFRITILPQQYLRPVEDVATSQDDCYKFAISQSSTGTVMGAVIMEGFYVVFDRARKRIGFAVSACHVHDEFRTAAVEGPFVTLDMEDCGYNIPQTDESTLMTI

SMILES	IC50
CN1C(=O)C2(CC(c3ccccc3)Oc3ccc(-c4ccc(CO)cc4)cc32)N=C1N (centres unmarked) [Compound 26, 2′-amino-6-(4-(hydroxymethyl)phenyl)-1′-methyl-2-phenylspiro[chroman-4,4′-imidazol]-5′(1′H)-one]	1 to 5 µM
CN1C(=O)C2(CC(c3ccccc3)Oc3ccc(Br)cc32)N=C1N (centres unmarked) [Compound 44, 2′-amino-6-bromo-1′-methyl-2-phenylspiro[chroman-4,4′-imidazol]-5′(1′H)-one]	10 to 50 µM
CNS(=O)(=O)c1cccc(-c2ccc3c(c2)C2(CC(c4ccccc4)O3)N=C(N)N(C)C2=O)c1 (centres unmarked) [Compound 48, 3-(2′-amino-1′-methyl-5′-oxo-2-phenyl-1′,5′-dihydrospiro[chroman-4,4′-imidazole]-6-yl)-N-methylbenzenesulfonamide]	5 to 10 µM
CN1C(=O)C2(CC(c3ccccc3)Oc3ccc(-c4cccc(C(=O)N5CCCC5)c4)cc32)N=C1N (centres unmarked) [Compound 61, 2′-amino-1′-methyl-2-phenyl-6-(3-(pyrrolidine-1-carbonyl)phenyl)spiro[chroman-4,4′-imidazol]-5′(1′H)-one]	10 to 50 µM
CN(C)C(=O)c1ccc(-c2ccc3c(c2)C2(CC(c4ccccc4)O3)N=C(N)N(C)C2=O)cc1 (centres unmarked) [Compound 68, 4-(2′-amino-1′-methyl-5′-oxo-2-phenyl-1′,5′-dihydrospiro[chroman-4,4′-imidazole]-6-yl)-N,N-dimethylbenzamide]	10 to 50 µM
CN1C(=O)C2(CC(c3ccccc3)Oc3ccc(-c4cccc(CO)c4)cc32)N=C1N (centres unmarked) [Compound 33, 2′-amino-6-(3-(hydroxymethyl)phenyl)-1′-methyl-2-phenylspiro[chroman-4,4′-imidazol]-5′(1′H)-one]	1 to 5 µM
CN1C(=O)C2(CC(c3ccccc3)Oc3ccc(-c4cc(C#N)ccc4Cl)cc32)N=C1N (centres unmarked) [Compound 21, 3-(2′-amino-1′-methyl-5′-oxo-2-phenyl-1′,5′-dihydrospiro[chroman-4,4′-imidazole]-6-yl)-4-chlorobenzonitrile]	0.5 to 1 µM
CN1C(=O)C2(CC(c3ccccc3)Oc3ccc(-c4ccccc4)cc32)N=C1N (centres unmarked) [Compound 27, 2′-amino-1′-methyl-2,6-diphenylspiro-[chroman-4,4′-imidazol]-5′(1′H)-one]	1 to 5 µM

Same assay, conditions: in vitro enzyme activity, BACE fluorescence assay, pH 4.5; read-out: IC50

SMILES	IC50
CC(C)=C[C@H](CCO)[C@@H]1C[C@@]2(N=C(N)N(C)O2)c2cc(-c3cc(F)cc(F)c3F)ccc2O1 [Compound 441]	5 to 10 µM
CN1C(=O)[C@@]2(C[C@@]3(CCCOC3)Oc3ccc(-c4cc(C#N)cc(C#N)c4)cc32)N=C1N [Compound 309]	0.1 to 0.5 µM
CN1OC2(CC3(CCN(c4ccccc4)CC3)Oc3ccc(-c4cccc(C#N)c4)cc32)N=C1N (centres unmarked) [Compound 390]	1 to 5 µM
CN1OC2(CC3(CCCOC3)Oc3ccc(C#Cc4ccccc4)cc32)N=C1N (centres unmarked) [Compound 454, 2″-methyl-6-(phenylethynyl)-2″H-spiro[spiro[chroman-2,1′-(3-oxacyclohexane)]-4,5′-[1,2,4]oxadiazol]-3″-amine]	10 to 50 µM
CN1OC2(CC3(CCc4ccccc4CC3)Oc3ccc(-c4cccc(C#N)c4)cc32)N=C1N (centres unmarked) [Compound 451]	10 to 50 µM
CN1C(=O)[C@@]2(C[C@]3(CCCOC3)Oc3ccc(-c4cccc(C#N)n4)cc32)N=C1N [Compound 410]	1 to 5 µM
CN1O[C@@]2(C[C@@H]([C@H]3CCCOC3)Oc3ccc(-c4cc(F)cc(F)c4)cc32)N=C1N [Compound 398]	1 to 5 µM
CN1OC2(CC(c3ccccc3)Oc3ccc(Oc4ccccc4)cc32)N=C1N (centres unmarked) [Compound 108, 2′-methyl-6-phenoxy-2-phenyl-2′H-spiro[chroman-4,5′-[1,2,4]oxadiazol]-3′-amine]	10 to 50 µM
CN1C(=O)C2(CC3(CCCOC3)Oc3ccc(-c4ccc(F)c(F)c4)cc32)N=C1N (centres unmarked) [Compound 351]	0.5 to 1 µM
CN1C(=O)C2(CC(c3ccc(C(F)(F)F)cc3)Oc3ccc(-c4cccc(C#N)c4)cc32)N=C1N (centres unmarked) [Compound 16]	0.5 to 1 µM
CN1OC2(CC3(CCCOC3)Oc3ccc(Oc4ccccc4)cc32)N=C1N (centres unmarked) [Compound 130]	10 to 50 µM
Cc1cccc(-c2ccc3c(c2)[C@]2(C[C@@]4(CCCOC4)O3)N=C(N)N(C)C2=O)c1C [Compound 440]	5 to 10 µM
COCCOc1cccc(-c2ccc3c(c2)C2(CC4(CCCOC4)O3)N=C(N)N(C)O2)c1 (centres unmarked) [Compound 129]	10 to 50 µM
CC1CCC2(CO1)CC1(N=C(N)N(C)O1)c1cc(-c3cccc(C#N)c3)ccc1O2 (centres unmarked) [Compound 387, 3-(2″H-3″-amino-2″-methyl-spiro(spiro(chroman-2,3′-[2,4,5,6-tetrahydro-6-methyl-pyran])-4,5″-[1,2,4]oxadiazole)-6-yl)benzonitrile]	1 to 5 µM
CCCN1C(=O)C2(CC(c3ccccc3)Oc3ccc(Br)cc32)N=C1N (centres unmarked) [Compound 57, 2′-amino-6-bromo-2-phenyl-1′-propylspiro[chroman-4,4′-imidazol]-5′(1′H)-one]	10 to 50 µM
CN1C(=O)C2(CC(C3CCOC(C)(C)C3)Oc3ccc(-c4cc(C#N)ccc4C(F)(F)F)cc32)N=C1N (centres unmarked) [Compound 284]	0.1 to 0.5 µM
Cc1ccc(C#N)cc1-c1ccc2c(c1)[C@]1(C[C@@]3(CCCOC3)O2)N=C(N)N(C)C1=O [Compound 413]	1 to 5 µM
CN1OC2(CC(CO)(CO)Oc3ccc(-c4cccc(C#N)c4)cc32)N=C1N (centres unmarked) [Compound 100, 3-(2,2-bis(hydroxymethyl)-3′-imino-2′-methylspiro[chroman-4,5′-[1,2,4]oxadiazolidine]-6-yl)benzonitrile]	1 to 5 µM
CN1OC2(CC(C3CCOC(C)(C)C3)Oc3ccc(-c4cccc(Cl)n4)cc32)N=C1N (centres unmarked) [Compound 393]	1 to 5 µM
CN1C(=O)[C@@]2(C[C@@]3(CCCOC3)Oc3ccc(-c4cccc(Cl)c4)cc32)N=C1N [Compound 289]	0.1 to 0.5 µM

SMILES	IC50
CN1C(=O)C2(CC(C3CCCOC3)Oc3ccc(-c4cccc(C#N)c4)cc32)N=C1N (centres unmarked) [Compound 1, 3-(2′-amino-1′-methyl-5′-oxo-2-(tetrahydro-2H-pyran-3-yl)-1′,5′-dihydrospiro[chroman-4,4′-imidazole]-6-yl)benzonitrile]	0.001 to 0.1 µM
CN1OC2(CC(C3CCCOC3)Oc3ccc(-c4cccc(C#N)c4)cc32)N=C1N (centres unmarked) [Compound 85, 3-(3′-amino-2′-methyl-2-(tetrahydro-2H-pyran-3-yl)-2′H-spiro[chroman-4,5′-[1,2,4]oxadiazole]-6-yl)benzonitrile]	0.001 to 0.1 µM
Cc1ccc2c(c1)C1(CC(c3ccccc3)O2)N=C(N)N(C)C1=O (centres unmarked) [Compound 64, 2′-amino-1′,6-dimethyl-2-phenylspiro[chroman-4,4′-imidizol]-5′(1′H)-one]	10 to 50 µM
CN1C(=O)C2(CC3(CCCCC3)Oc3ccc(-c4ccncc4)cc32)N=C1N (centres unmarked) [Compound 84]	10 to 50 µM
CN1OC2(CC(C3CCCOC3)Oc3ccc(-c4cc(F)cc(C#N)c4)cc32)N=C1N (centres unmarked) [Compound 86]	0.001 to 0.1 µM
COc1ccc(-c2ccc3c(c2)[C@]2(C[C@@]4(CCCOC4)O3)N=C(N)N(C)C2=O)cc1OC [Compound 458]	10 to 50 µM
CN1O[C@@]2(C[C@@]3(CCC(C(C)(C)C)C3)Oc3ccc(-c4cccc(C#N)c4)cc32)N=C1N (some centres unmarked) [Compound 127a]	5 to 10 µM
COc1cccc(C2CC3(N=C(N)N(C)C3=O)c3cc(Br)ccc3O2)c1 (centres unmarked) [Compound 46, 2′-amino-6-bromo-2-(3-methoxyphenyl)-1′-methylspiro[chroman-4,4′-imidazol]-5′(1′H)-one]	5 to 10 µM
CC(C)=CC(CCO)[C@H]1C[C@@]2(N=C(N)N(C)O2)c2cc(-c3cc(F)cc(F)c3F)ccc2O1 (some centres unmarked) [Compound 420]	1 to 5 µM
Cc1cccc(-c2ccc3c(c2)[C@]2(C[C@]4(CCCOC4)O3)N=C(N)N(C)C2=O)c1C [Compound 389]	1 to 5 µM
CN1C(=O)C2(CC3(CCCCC3)Oc3ccc(-c4cccc(C#N)c4)cc32)N=C1N (centres unmarked) [Compound 76]	0.1 to 0.5 µM
CC(=O)N1CCC2(CC1)CC1(N=C(N)N(C)O1)c1cc(-c3cccc(C#N)c3)ccc1O2 (centres unmarked) [Compound 409, 3-(spiro[spiro(chroman-2,4′-(1-acetylpiperidine))-4,5′-(3-amino-2-methyl-2H-[1,2,4]oxadiazole)]-6-yl)benzonitrile]	1 to 5 µM
Cc1ccc(-c2ccc3c(c2)C2(CC4(CCCOC4)O3)N=C(N)N(C)C2=O)s1 (centres unmarked) [Compound 414]	1 to 5 µM
CN1C(=O)[C@@]2(C[C@@]3(CCCOC3)Oc3ccc(-c4cccc(Cl)n4)cc32)N=C1N [Compound 447]	5 to 10 µM
CN1C(=O)C2(CC(c3ccccc3)Oc3ccc(-c4cc(N)cc(C#N)c4)cc32)N=C1N (centres unmarked) [Compound 17, 3-amino-5-(2′-amino-1′-methyl-5′-oxo-2-phenyl-1′,5′-dihydrospiro[chroman-4,4′-imidazole]-6-yl)benzonitrile]	0.5 to 1 µM
COc1cccc(C2CC3(N=C(N)N(C)C3=O)c3cc(-c4cccc(C#N)c4)ccc3O2)c1 (centres unmarked) [Compound 23, 3-(2′-amino-2-(3-methoxyphenyl)-1′-methyl-5′-oxo-1′,5′-dihydrospiro[chroman-4,4′-imidazole]-6-yl)benzonitrile]	1 to 5 µM
CCOC(=O)c1cccc(-c2ccc3c(c2)[C@]2(C[C@]4(CCCOC4)O3)N=C(N)N(C)C2=O)c1 [Compound 386]	1 to 5 µM
CN1C(=O)C2(CC(c3cccc(F)c3F)Oc3ccc(-c4cccc(C#N)c4)cc32)N=C1N (centres unmarked) [Compound 14, 3-(2′-amino-2-(2,3-difluorophenyl)-1′-methyl-5′-oxo-1′,5′-dihydrospiro[chroman-4,4′-imidazole]-6-yl)benzonitrile]	0.1 to 0.5 µM
CN1O[C@]2(C[C@]3(CCCc4ccccc43)Oc3ccc(-c4cccc(C#N)c4)cc32)N=C1N [Compound 374]	1 to 5 µM
